In patent US11193004B2, “Phosphoric ester preparations with reduced hygroscopicity” (LANXESS Deutschland GmbH, priority 2013, dated 2021):

Key:
[1] = physchem; conditions: 25 °C, water
[2] = Solubility in water of phosphoric esters b)

Compound	solubility [1]	Solubility in water at 25° C. [2]
CCOP(=O)(OCC)OCC [TEP, Triethyl phosphate]	> 3000 µg/mL	miscible
Isopropylated triphenyl phosphate [IPP]		0.33 µg/mL
Diphenyl cresyl phosphate [DPC]		2.6 µg/mL
O=P(OC(CCl)CCl)(OC(CCl)CCl)OC(CCl)CCl [TDCP, Tris(2,3-dichloroisopropyl) phosphate]		100 µg/mL
